Measurements published in ChEMBL document CHEMBL1201862, “PubChem BioAssay data set” (2004).
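Method: 48-hour compound exposure of cells in 96-well plates, five concentrations, linear interpolation of endpoints. GI50 is the concentration that inhibits growth by half.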 Calls of active or inactive are those of the source. Cut-off read from the data, not from the text of the source: active = GI50 up to about 1.1 µM and inactive = higher.

Key:
Test in all cases: NCI anticancer screen, dose series, 48 h
[1] = test system: MOLT-4
[2] = test system: IGROV-1
[3] = test system: NCI/ADR-RES
[4] = test system: PC-3
[5] = test system: SK-MEL-2
[6] = test system: EKVX
[7] = test system: OVCAR-8
[8] = test system: NCI-H522
[9] = test system: T47D
[10] = test system: 786-0
[11] = test system: A498
[12] = test system: Hs-578T
[13] = test system: RXF 393
[14] = test system: HCT-15
[15] = test system: BT-549
[16] = test system: HCT-116
[17] = test system: K562
[18] = test system: M14
[19] = test system: SK-OV-3

Row | Compound | GI50 [1] | GI50 [2] | GI50 [3] | GI50 [4] | GI50 [5] | GI50 [6] | GI50 [7] | GI50 [8] | GI50 [9] | GI50 [10] | GI50 [11] | GI50 [12] | GI50 [13] | GI50 [14] [µM] | GI50 [15] | GI50 [16] | GI50 [17] | GI50 [18] | GI50 [19]
1 | O=c1[nH]c2nc(S)nc(S)c2[nH]1 | > 100 µM (inactive) | > 100 µM (inactive) | > 100 µM (inactive) | > 100 µM (inactive) | > 100 µM (inactive) | > 100 µM (inactive) | > 100 µM (inactive) | > 100 µM (inactive) | > 100 µM (inactive) | > 100 µM (inactive) | > 100 µM (inactive) | > 100 µM (inactive) | > 100 µM (inactive) | > 100 | > 100 µM (inactive) | > 100 µM (inactive) | > 100 µM (inactive) | > 100 µM (inactive) | 
2 | Cc1c(NC(=O)Nc2c(Cl)cccc2Cl)c(=O)n(-c2ccccc2)n1C | > 100 µM (inactive) | > 100 µM (inactive) | > 100 µM (inactive) | > 100 µM (inactive) | > 100 µM (inactive) | > 100 µM (inactive) | > 100 µM (inactive) | > 100 µM (inactive) | > 100 µM (inactive) | > 100 µM (inactive) | > 100 µM (inactive) | > 100 µM (inactive) | > 100 µM (inactive) | > 100 | > 100 µM (inactive) | > 100 µM (inactive) | > 100 µM (inactive) | > 100 µM (inactive) | > 100 µM (inactive)
3 | O=C(CC(=O)Nc1ccccc1Cl)NNC(c1cc(/N=N/c2ccc(Br)cc2)ccc1O)P(O)O (centres undefined) | 0.338 µM (active) | 6.9 µM (inactive) | 1.07 µM (active) | 0.521 µM (active) | > 10 µM (inactive) | 4.22 µM (inactive) | 0.525 µM (active) | 2.97 µM (inactive) | 2.12 µM (inactive) | 0.565 µM (active) | 2.27 µM (inactive) | > 10 µM (inactive) | 1.34 µM (inactive) | 0.594 | 2.33 µM (inactive) | 0.311 µM (active) | 2.4 µM (inactive) | 0.61 µM (active) | 3.03 µM (inactive)
4 | COc1ccc(Nc2nc3ccccc3nc2C(=O)O)cc1OC | 65 µM (inactive) | 98.4 µM (inactive) | 35.2 µM (inactive) | > 100 µM (inactive) |  | 61.7 µM (inactive) | > 100 µM (inactive) | > 100 µM (inactive) | 33.8 µM (inactive) | 73.6 µM (inactive) | 21.3 µM (inactive) | > 100 µM (inactive) | 74.1 µM (inactive) | 50.7 | 52.7 µM (inactive) | > 100 µM (inactive) | > 100 µM (inactive) | > 100 µM (inactive) | 64.4 µM (inactive)
5 | COc1ccc(/C=C2\CC3C4CC=C5C[C@@H](O)CC[C@]5(C)C4CC[C@]3(C)C2=O)cc1OC (some centres undefined) | 20 µM (inactive) | 75.3 µM (inactive) | 45 µM (inactive) | 25.9 µM (inactive) | 24.2 µM (inactive) | 28.2 µM (inactive) | 43.3 µM (inactive) | 17.2 µM (inactive) | 8.28 µM (inactive) | 40.3 µM (inactive) | 28.6 µM (inactive) | 36.5 µM (inactive) | 34 µM (inactive) | 34 | 44.6 µM (inactive) | 24 µM (inactive) | 12.5 µM (inactive) | 65 µM (inactive) | 41.6 µM (inactive)
6 | O=[N+]([O-])c1ccc(NS(=O)(=O)C(F)(F)F)cc1 | > 100 µM (inactive) | 85.1 µM (inactive) | > 100 µM (inactive) | > 100 µM (inactive) | > 100 µM (inactive) | > 100 µM (inactive) | > 100 µM (inactive) | 22.1 µM (inactive) | > 100 µM (inactive) | > 100 µM (inactive) | > 100 µM (inactive) | > 100 µM (inactive) | > 100 µM (inactive) | > 100 | > 100 µM (inactive) | > 100 µM (inactive) |  | > 100 µM (inactive) | > 100 µM (inactive)
7 | CCOC(=O)C(=[N+]=[N-])C(=O)C[N+]12CCN(CC1)CC2 | > 100 µM (inactive) | > 100 µM (inactive) | > 100 µM (inactive) | > 100 µM (inactive) | > 100 µM (inactive) |  | > 100 µM (inactive) | > 100 µM (inactive) | > 100 µM (inactive) | > 100 µM (inactive) | > 100 µM (inactive) | > 100 µM (inactive) | > 100 µM (inactive) | > 100 | > 100 µM (inactive) | > 100 µM (inactive) | > 100 µM (inactive) | > 100 µM (inactive) | > 100 µM (inactive)
